{"source": "patent US10172876B2", "about": "“Use of ginsenoside M1 for treating IgA nephropathy” (priority 2014, dated 2019)", "key": {"[1]": {"tested_on": "reactive oxygen species (ROS)", "experiment": "Measurement of reactive oxygen species (ROS) in renal tissue of IgAN mice", "type": "in vivo", "conditions": "vs disease control (FIG. 10)", "protocol": "(§1) B-cell-deficient mice were obtained from the Academia Sinica (Professor John T. Kung, Institute of Molecular Biology, Taipei, Taiwan) and maintained at the animal center of the National Defense Medical Center (Taipei, Taiwan). IgAN was induced by daily injection of purified IgA anti-phosphorylcholine antibodies and pneumococcal C-polysaccharide antigen (PnC). All animal experiments were performed with the approval of the Institutional Animal Care and Use Committee of the National Defense Medical Center and complied with the NIH Guide for the Care and Use of Laboratory Animals.\n(§2) Ginsenoside M1, 20-O-β-D-glucopyranosyl-20(S)-protopariaxadiol (named LCHK168 below), was prepared by methods known in the art, such as those described in Taiwan Patent Application No. 094116005 (1280982) and U.S. Pat. No. 7,932,057. […]\nTo measure ROS levels in renal tissue, the samples were incubated at room temperature with Krebs-Hepes buffer containing 1.25 mM lucigenin (Sigma, St. Louis, Mo., USA) as substrate, and luminescence counts were measured in duplicate at 15-s intervals on a multilabel microplate reader (Hidex). ROS activity was expressed as relative luminescence units (RLU) per 15 minutes per milligram of organ dry weight (i.e., RLU/15 min/mg) or as RLU/15 min/ml."}, "[2]": {"tested_on": "memory CD4+ T cells", "experiment": "Flow cytometry of splenocytes for memory CD4+ T cells in IgAN mice", "type": "in vivo", "conditions": "60 mg/kg daily oral gavage, vs disease control (FIG. 11)", "protocol": "as §1, §2\nSplenocytes from the mice were treated with Tris-buffered ammonium chloride to eliminate erythrocytes, washed and resuspended in RPMI1640 medium supplemented with 10% fetal calf serum, Hepes buffer, L-glutamine, and penicillin/streptomycin. The cells were triple-stained for activated T cell subtypes using FITC-conjugatedanti-mouse CD44, phycoerythrin-conjugated anti-mouse CD62 antibodies, and allophycocyanin-conjugated anti-mouse CD4 and analyzed using a FACSCalibur."}, "[3]": {"tested_on": "mice model of IgA nephropathy (IgAN)", "experiment": "Renal histopathology (H&E) in IgAN mice", "type": "in vivo", "conditions": "day 28, 60 mg/kg daily oral gavage, vs disease control (FIG. 3)", "protocol": "as §1\n(§3) Ginsenoside M1, 20-O-β-D-glucopyranosyl-20(S)-protopariaxadiol (named LCHK168 below), was prepared by methods known in the art, such as those described in Taiwan Patent Application No. 094116005 (1280982) and U.S. Pat. No. 7,932,057. The mice were treated daily with 60 mg/kg LCHK168 or with the vehicle, by oral gavage throughout the experiment, the first dose being given 2 day before disease induction.\nBody weight was measured weekly. Urine samples were collected in metabolic cages weekly and urine protein was determined. […] The percentage of glomeruli showing proliferation, neutrophil infiltration, sclerosis, or periglomerular inflammation was determined by counting 50 randomly sampled glomeruli by light microscopy at a magnification of 400×."}, "[4]": {"tested_on": "mice model of IgA nephropathy (IgAN)", "experiment": "Urine protein and renal function in IgAN mice", "type": "in vivo", "protocol": "as §1, §3\nBody weight was measured weekly. Urine samples were collected in metabolic cages weekly and urine protein was determined. Serum samples were collected on days 14 and 28 to measure serum levels of blood urea nitrogen (BUN) and creatinine (Cr). For renal histopathology, the tissues were fixed in 10% buffered formalin and embedded in paraffin, and then sections (3 μm) were prepared and stained with hematoxylin and eosin (H&E). The percentage of glomeruli showing proliferation, neutrophil infiltration, sclerosis, or periglomerular inflammation was determined by counting 50 randomly sampled glomeruli by light microscopy at a magnification of 400×."}, "[5]": {"tested_on": "Dendritic cells (DCs)", "experiment": "IgA-IC stimulated dendritic cell maturation by flow cytometry", "type": "cell-based, mouse", "conditions": "LCHK168 1, 2 μM, flow cytometry (FIG. 13)", "protocol": "(§4) Dendritic cells (DCs) maturation was determined by the upregulation of costimulatory molecule expression. Cells were treated with IgA-IC, LCHK168 (1, 2 μM) and stained with mAbs specific for mouse CD40, CD80, and CD86 and then analyzed by flow cytometry."}, "[6]": {"tested_on": "NLRP3", "experiment": "Western blot of NLRP3 in IgA-IC stimulated DCs", "type": "cell-based, mouse", "conditions": "β-actin loading control (FIG. 14)", "protocol": "as §4\nEach protein sample was run on a 8% SDS-PAGE gel and the proteins were electro blotted on to a polyvinylidene difluoride membrane, which was then incubated for 1 h at room temperature in blocking buffer (Tris-buffered saline containing 5% skim milk) and then overnight at 4° C. with rabbit antibodies against NLRP3 or β-actin. After being washed, the membrane was incubated for 1 h at room temperature with HRP-conjugated goat anti-rabbit IgG antibody in the same buffer; then bound antibody was detected using UVP Biospectrum."}, "[7]": {"tested_on": "TLR2", "experiment": "Real-time RT-PCR of renal TLR2 mRNA in IgAN mice", "type": "in vivo", "conditions": "60 mg/kg daily oral gavage", "protocol": "as §1, §3\nRenal cortex RNA was extracted using TRIzol reagent according to the manufacturer's instructions, and RT-PCR was used to measure TLR2 gene expression. […] Real-time quantification was performed using a Applied Biosystems according to the manufacturer's instructions. […]"}, "[8]": {"tested_on": "mice model of IgA nephropathy (IgAN)", "experiment": "IHC of renal tissue for infiltrating leukocytes and Collagen IV in IgAN mice", "type": "in vivo", "conditions": "day 28, 60 mg/kg daily oral gavage", "protocol": "as §1, §3\nFor IHC, formalin-fixed and paraffin-embedded tissue sections or frozen sections were incubated overnight at 4. C with anti-bodies against CD3, F4/80, CD4, CD8, CD11c, Collagen IV, diluted in DAKO antibody dilution buffer (DAKO), and then for 1 h at room temperature with horseradish peroxidase (HRP)-conjugated second antibodies (DAKO) in the same buffer; in the case of the HRP-conjugated antibodies, DAB (DAKO) was also added. Hematoxylin was used to counterstain nuclei. Positive cells was counted at a magnification of 400× in 20 consecutive glomeruli or in 20 randomly selected fields of the tubule interstitial compartment in the cortical area by Pax-It quantitative image analysis software."}, "[9]": {"conditions": "day 14, 60 mg/kg daily oral gavage, between disease control, IgAN+LCHK168 and normal control"}}, "data": [{"smiles": "CC(C)=CCC[C@](C)(O[C@@H]1OC(CO)[C@@H](O)[C@@H](O)C1O)[C@H]1CC[C@]2(C)C1[C@H](O)CC1[C@@]3(C)CC[C@H](O)C(C)(C)C3CC[C@]12C", "note": "(stereo partly drawn) [LCHK168, 20-O-β-D-glucopyranosyl-20(S)-protopanaxadiol]", "values": [{"measurement": "increase in renal tissues ROS levels", "setting": "[1]; day 14, 60 mg/kg daily oral gavage", "result": "greatly inhibited"}, {"measurement": "increase in ROS levels in renal tissues", "setting": "[1]; day 28, 60 mg/kg daily oral gavage", "result": "substantially inhibited"}, {"measurement": "memory CD4+ T cells in splenocytes", "setting": "[2]", "result": "significant reduction"}, {"measurement": "renal lesion (proliferation, crescents, sclerosis, neutrophil infiltration, periglomerular leukocyte infiltration, tubular atrophy)", "setting": "[3]", "result": "significantly inhibited"}, {"measurement": "urine protein levels (ratio of urine protein to creatinine)", "setting": "[4]; IgAN mice, 60 mg/kg daily oral gavage, day 14 to day 28, vs vehicle-treated disease control (FIG. 1)", "result": "markedly inhibited"}, {"measurement": "proteinuria compared to normal untreated controls", "setting": "[4]; IgAN mice, 60 mg/kg daily oral gavage, vs normal untreated controls (FIG. 1)", "result": "mild proteinuria"}, {"measurement": "serum levels of BUN", "setting": "[4]; [9]", "result": "no significant difference"}, {"measurement": "serum levels of Cr", "setting": "[4]; [9]", "result": "no significant difference"}, {"measurement": "serum levels of BUN", "setting": "[4]; day 28, 60 mg/kg daily oral gavage, vs disease control (FIG. 2A)", "result": "much better renal function"}, {"measurement": "serum levels of Cr", "setting": "[4]; day 28, 60 mg/kg daily oral gavage, vs disease control (FIG. 2B)", "result": "much better renal function"}, {"measurement": "expression level of CD40 in DCs", "setting": "[5]", "result": "significantly lowered"}, {"measurement": "expression level of CD80 in DCs", "setting": "[5]", "result": "significantly lowered"}, {"measurement": "expression level of CD86 in DCs", "setting": "[5]", "result": "significantly lowered"}, {"measurement": "NLRP3 protein expression in DCs", "setting": "[6]", "result": "significantly decreased"}, {"measurement": "TLR2 mRNA levels in the kidney (relative to GAPDH)", "setting": "[7]; 14 days, difference vs IgAN control mice (FIG. 12)", "result": "not statistically significant"}, {"measurement": "TLR2 mRNA levels in the kidney (relative to GAPDH)", "setting": "[7]; 28 days, vs IgAN control mice (FIG. 12)", "result": "significantly lower"}, {"measurement": "renal infiltration of CD3+ T cells", "setting": "[8]; vs disease control (FIG. 4)", "result": "significantly decreased"}, {"measurement": "renal infiltration of F4/80+ monocytes/macrophages", "setting": "[8]; vs disease control (FIG. 5)", "result": "significantly decreased"}, {"measurement": "renal infiltration of CD4+ T cells", "setting": "[8]; vs disease control (FIG. 6)", "result": "significantly decreased"}, {"measurement": "renal infiltration of CD8+ T cells", "setting": "[8]; vs disease control (FIG. 7)", "result": "significantly decreased"}, {"measurement": "renal infiltration of CD11c+ dendritic cells", "setting": "[8]; vs disease control (FIG. 8)", "result": "significantly decreased"}, {"measurement": "renal fibrosis (Collagen IV staining)", "setting": "[8]; vs disease control (FIG. 9)", "result": "significantly decreased"}]}]}
